Test results reported in ChEMBL document CHEMBL1287746, “The discovery of tricyclic pyridone JAK2 inhibitors. Part 1: hit to lead” (Bioorg Med Chem Lett, 2010).
pIC50: −log10 of the molar value. Converted amounts (≈) assume the structure as drawn.

tested on: Mus musculus; test: Inhibition of JAK2 in erythropoietin-treated […] mouse assessed as reduction in pSTAT5 level in whole blood at 30 mg/kg, po measured after 1 and 3 hrs; assay type: functional, organism-based; design: dose 30 mg/kg, route oral; details: not given

Work on `CC(C)[C@@H](Nc1nc2cc[nH]c(=O)c2c2cnccc12)C(F)(F)F` yielded a pIC50 of 5.57.

tested on: not listed separately; test: Aqueous solubility of the compound at pH 7; assay type: physicochemical; details: not given

Going from `CC(C)[C@@H](Nc1nc2cc[nH]c(=O)c2c2cnccc12)C(F)(F)F` to `CC(C)[C@@H](Nc1nc2cc[nH]c(=O)c2c2cc(F)ccc12)C(F)(F)F`, the solubility falls from 120 µM (≈ 40.4 µg/mL) to 3 µM (≈ 1.06 µg/mL) (40-fold).

tested on: not listed separately; test: Volume of distribution in Sprague-Dawley rat at 1 mg/kg, iv; assay type: ADME, organism-based; design: dose 1 mg/kg, route intravenous; details: in vivo

`CC(C)[C@@H](Nc1nc2cc[nH]c(=O)c2c2cnccc12)C(F)(F)F` and `CC(C)[C@@H](Nc1nc2cc[nH]c(=O)c2c2cc(F)ccc12)C(F)(F)F` are within 1.5-fold of each other in Vd: 8 L/kg for the first, 6 L/kg for the second.

target: T1, Tyrosine-protein kinase JAK2 (Homo sapiens, UniProt O60674); test: Inhibition of JAK2 expressed in human Du-145 cells; assay type: cell-based; details: not given
T1 sequence (O60674 whole entry): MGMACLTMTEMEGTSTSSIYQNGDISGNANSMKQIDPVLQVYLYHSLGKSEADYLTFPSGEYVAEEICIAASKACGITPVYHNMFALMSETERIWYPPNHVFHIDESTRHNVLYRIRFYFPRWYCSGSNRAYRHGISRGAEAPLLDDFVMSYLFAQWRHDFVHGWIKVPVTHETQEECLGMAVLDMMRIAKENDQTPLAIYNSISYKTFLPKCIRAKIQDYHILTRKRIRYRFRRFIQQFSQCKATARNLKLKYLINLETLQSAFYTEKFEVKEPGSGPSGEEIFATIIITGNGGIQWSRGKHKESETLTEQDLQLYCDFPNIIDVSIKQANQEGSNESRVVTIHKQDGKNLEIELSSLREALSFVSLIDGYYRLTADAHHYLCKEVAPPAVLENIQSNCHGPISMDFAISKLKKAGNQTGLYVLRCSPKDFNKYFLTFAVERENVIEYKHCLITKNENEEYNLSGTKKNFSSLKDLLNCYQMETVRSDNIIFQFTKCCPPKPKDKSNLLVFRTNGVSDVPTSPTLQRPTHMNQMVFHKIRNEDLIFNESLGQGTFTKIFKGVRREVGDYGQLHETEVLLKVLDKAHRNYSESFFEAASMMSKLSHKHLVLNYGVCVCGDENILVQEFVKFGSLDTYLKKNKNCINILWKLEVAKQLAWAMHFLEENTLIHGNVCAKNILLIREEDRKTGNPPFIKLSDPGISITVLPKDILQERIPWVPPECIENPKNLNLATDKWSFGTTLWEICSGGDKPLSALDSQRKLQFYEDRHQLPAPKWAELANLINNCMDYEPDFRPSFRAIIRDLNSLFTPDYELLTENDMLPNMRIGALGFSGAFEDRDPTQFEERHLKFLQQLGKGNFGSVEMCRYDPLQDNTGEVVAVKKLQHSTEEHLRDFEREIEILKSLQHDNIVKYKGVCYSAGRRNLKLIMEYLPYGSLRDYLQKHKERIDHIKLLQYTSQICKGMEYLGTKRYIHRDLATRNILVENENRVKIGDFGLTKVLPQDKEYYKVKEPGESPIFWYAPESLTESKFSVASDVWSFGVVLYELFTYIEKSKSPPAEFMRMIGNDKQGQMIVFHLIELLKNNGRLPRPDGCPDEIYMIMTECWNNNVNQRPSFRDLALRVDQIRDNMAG

`CC(C)[C@@H](Nc1nc2cc[nH]c(=O)c2c2cnccc12)C(F)(F)F` and `CC(C)[C@@H](Nc1nc2cc[nH]c(=O)c2c2cc(F)ccc12)C(F)(F)F` are within 0.2 log units of each other in pIC50: 7.40 for the first, 7.30 for the second.

tested on: not listed separately; test: Lipophilicity log D of the compound at pH 7.4 by HPLC; assay type: physicochemical; details: buffer

Going from `CC(C)[C@@H](Nc1nc2cc[nH]c(=O)c2c2cnccc12)C(F)(F)F` to `CC(C)[C@@H](Nc1nc2cc[nH]c(=O)c2c2cc(F)ccc12)C(F)(F)F`, the logD rises from 2.33 to 3.34.

tested on: Mus musculus; test: Inhibition of JAK2 in erythropoietin-treated […] mouse assessed as reduction in pSTAT5 level in whole blood at 90 mg/kg, po measured after 1 and 3 hrs; assay type: functional, organism-based; design: dose 90 mg/kg, route oral; details: not given

Molecule `CC(C)[C@@H](Nc1nc2cc[nH]c(=O)c2c2cnccc12)C(F)(F)F` has a pIC50 of 5.57.

tested on: not listed separately; test: Clearance in Sprague-Dawley rat at 1 mg/kg, iv; assay type: ADME, organism-based; design: dose 1 mg/kg, route intravenous; details: in vivo

First: CC(C)[C@@H](Nc1nc2cc[nH]c(=O)c2c2cnccc12)C(F)(F)F
Second: CC(C)[C@@H](Nc1nc2cc[nH]c(=O)c2c2cc(F)ccc12)C(F)(F)F
The clearance of the first is 3.2-fold higher: 68 mL/min/kg for the first, 21 mL/min/kg for the second.

target: T1, Tyrosine-protein kinase JAK2; test: Inhibition of JAK2 in cell-free system; details: not given

Going from `CC(Nc1nc2cc[nH]c(=O)c2c2cc(F)ccc12)C(C)(C)C` (stereo unspecified) to `CC(C)Nc1nc2cc[nH]c(=O)c2c2cc(F)ccc12`, the pIC50 falls from 7.59 to 6.86 (0.73 log units).

Going from `CC(Nc1nc2cc[nH]c(=O)c2cc1-c1ccc(F)cc1)c1cc(F)c(Cl)cc1Cl` (stereo unspecified) to `CC(C)(C)CNc1nc2cc[nH]c(=O)c2cc1-c1ccc(F)cc1`, the pIC50 falls from 4.93 to 4.54 (0.39 log units).

First: O=c1[nH]ccc2nc(NCc3c(Cl)cccc3Cl)c3ccc(F)cc3c12
Second: O=c1[nH]ccc2nc(Nc3c(Cl)cccc3Cl)c3ccc(F)cc3c12
The pIC50 of the first is 0.57 log units lower: 7.28 for the first, 7.85 for the second. The second is the more potent here.

First: CC(C)[C@H](Nc1nc2cc[nH]c(=O)c2c2cc(F)ccc12)C(F)(F)F
Second: CC(C)[C@@H](Nc1nc2cc[nH]c(=O)c2c2cc(F)ccc12)C(F)(F)F
The pIC50 of the first is 1.74 log units lower: 7.26 for the first, 9.00 for the second. The second is the more potent here.

First: CC(Nc1nc2cc[nH]c(=O)c2cc1-c1nc(-c2ccccc2)no1)C(C)(C)C (stereo unspecified)
Second: CC(Nc1nc2cc[nH]c(=O)c2cc1-c1ccccn1)C(C)(C)C (stereo unspecified)
The pIC50 of the first is 1.26 log units lower: 4.94 for the first, 6.20 for the second.

First: O=c1[nH]ccc2nc(NCC3CCS(=O)(=O)C3)c3ccc(F)cc3c12 (stereo unspecified)
Second: O=c1[nH]ccc2nc(NC3CCC3)c3ccc(F)cc3c12
The pIC50 of the first is 0.83 log units lower: 6.29 for the first, 7.12 for the second. The second is the more potent here.

Going from `O=c1[nH]ccc2nc(Nc3c(F)cc(F)cc3Cl)c3ccc(F)cc3c12` to `O=c1[nH]ccc2nc(Nc3cccc(F)c3)c3ccc(F)cc3c12`, the pIC50 falls from 8.40 to 5.39 (3.01 log units).

First: CC(Nc1nc2cc[nH]c(=O)c2cc1C(=O)NCCN(C)C)C(C)(C)C (stereo unspecified)
Second: CC(C)(CO)CNc1nc2cc[nH]c(=O)c2c2cc(F)ccc12
The pIC50 of the first is 1.48 log units lower: 5.08 for the first, 6.56 for the second.

Going from `CC(C)[C@H](C)Nc1nc2cc[nH]c(=O)c2c2cc(F)ccc12` to `CC(C)(CN)CNc1nc2cc[nH]c(=O)c2c2cc(F)ccc12`, the pIC50 falls from 7.57 to 5.50 (2.07 log units).

`O=c1[nH]ccc2nc(NC3CC(F)(F)C3)c3ccc(F)cc3c12` and `O=c1[nH]ccc2nc(NCc3ccccn3)c3ccc(F)cc3c12` are within 0.2 log units of each other in pIC50: 6.12 for the first, 5.95 for the second.

First: CC(C)[C@@H](Nc1nc2cc[nH]c(=O)c2c2cnccc12)C(F)(F)F
Second: O=c1[nH]ccc2nc(NCc3ccncc3)c(-c3ccccc3)cc12
The pIC50 of the first is 3.15 log units higher: 9.00 for the first, 5.85 for the second. The first is the more potent here.

First: CN1CCC(N(c2nc3cc[nH]c(=O)c3c3cc(F)ccc23)C2CC2)CC1
Second: O=c1[nH]ccc2nc(N3CCC(F)(F)C3)c(-c3ccc(F)cc3)cc12
The pIC50 of the first is 0.87 log units higher: 6.27 for the first, 5.40 for the second. The first is the more potent here.
